Source: patent US6900315B2, “2-amino-9H-purin-9-yl compounds and methods for inhibiting/treating HIV infections and AIDS related symptoms” (Yale University, priority 2001, dated 2005)
Where two headings read alike, the source gives them in different places.

Columns and labels:
MT-2 = test: Toxicity, dye based cell growth assay in absence of HIV, MT-2; settings: Homo sapiens, MT2, 120 h, read-out: IC50 (inhibited 50% of the cell growth); MT-2, HTLV infected T cell line, 5 days
Protocol: (§1) To determine the toxicity of the compounds to various cell lines (Table 1, below), a similar dye based assay is performed in the absence of HIV. The toxicity of the compounds alone therefore was determined.

HIV [1] = test: Anti-HIV drug combination (synergy, isobologram of FEC50) in cell culture; type: cell-based
Protocol: Points on this line represent the compounds working independently.
In an attempt to understand how D4G prodrugs of the present invention would interact with other clinically approved compounds, experiments were performed with drug combinations. […] Points on the line represent two compounds working independently. […] See, Bridges, et al., Biochem. Pharmacol., 51, 731 (1996) and Dutschman, et al., Antimicro. Agents Chemother. 42, 1799 (1998).

KB = test: Toxicity, dye based cell growth assay, KB; settings: Homo sapiens, 120 h, read-out: IC50 (inhibited 50% of the cell growth), oral carcinoma, 5 days
Protocol: as §1

HEP-G2 = test: Toxicity, dye based cell growth assay, HEP-G2; settings: Homo sapiens, HepG2, 120 h, read-out: IC50 (inhibited 50% of the cell growth); HEP-G2, hepatoma cell line, 5 days
Protocol: as §1

HeLa = test: Toxicity, dye based cell growth assay, HeLa; settings: Homo sapiens, 120 h, read-out: IC50 (inhibited 50% of the cell growth), cervical cancer cell line, 5 days
Protocol: as §1

HIV IIIB = test: Anti-HIV activity in MT-2 cells infected with HIV IIIB, MTT dye cell viability; type: cell-based; settings: for anti-HIV activity: summary of Table 1
Protocol: To assess the ability of the compounds according to the present invention to inhibit viral infection relative to other compounds experiments were performed in the MT-2 cell line, as previously described by Larder, et al., Antimicrobial Agents & Chemotherapy, vol. 34, 436 (1990). […] Cells were infected at an initial multiplicity of infection (MOI) of 0.1 and grown for 5 days. Cell viability was assessed by the use of dye metabolized by viable cells.

HIV [2] = test: Effect of mycophenolic acid on anti-HIV activity of nucleoside analogs in cell culture; type: cell-based
Protocol: FIG. 2 presents table 6 and indicates the effect that mycophenolic acid has on the anti-HIV activity of the indicated nucleoside analogs. In the experiment depicted in this Figure, 1×10^5 cells/ml were incubated with or without 200 nM mycophenolic acid for 30 minutes and then added to wells containing nucleoside analogs to test for toxicity and anti-HIV activity. The date presented is representative of at least two independent trials.
In cell culture, the mechanism of activation for D4G prodrugs has been investigated with the initial model compound cyclo D4G. […] Experiments with mycophenolic acid, an inhibitor of inosine monophosphate (IMP) dehydrogenase have been used to study the guanine dependence of activation for cyclo D4G. The addition of mycophenolic acid results in an increase in cellular IMP and a decrease in GMP and all other guanine containing nucleosides and nucleotides. […]. The data which is presented is representative of at least two independent trials. Furthermore, cyclo D4G's activity could be rescued by the addition of guanine to the media (data not shown).

CEM = test: Toxicity, dye based cell growth assay, CEM; settings: Homo sapiens, CCRF-CEM, 120 h, read-out: IC50 (inhibited 50% of the cell growth); CEM, T cell line, 5 days
Protocol: as §1

[3] = test system: mitochondrial DNA in CEM cells; test: Mitochondrial toxicity: ratio of mitochondrial DNA to Alu repeat in CEM cells; type: cell-based; settings: human, 8 days
Source text: After 8 days of growth the cells were lysed and probed for the amount of mitochondrial DNA and normalized for differences in the amount of total DNA by probing for the Alu repeat. By comparing the amount of mitochondrial DNA to the amount of Alu repeat the % decrease in mitochondrial DNA in the presence of various concentrations of drug can be obtained. All experiments were done in triplicate. Techniques which are presented here have been previously described in Chen and Cheng, J. Biol. Chem., vol. 264, 11934-7 (1989).

[4] = molecular target: T1, wild type HIV-1 reverse transcriptase (Human immunodeficiency virus type 1 group M subtype B, UniProt P04585); test: Kinetics of nucleotide incorporation by wild type HIV-1 reverse transcriptase; type: biochemical; set-up: kpol/Kd: unit not given here
T1 construct: a mixture of 100 nM HIV-1 reverse transcriptase and 300 nM primer/template
Protocol: Continued research on the guanosine prodrug approach for making D4G a viable anti-HIV agent has yielded a number of new findings. In the present example, enzyme kinetics for the incorporation of the active metabolites of guanosine prodrugs with wild type HIV-1 reverse transcriptase was determined. In this experiment, a mixture of 100 nM HIV-1 reverse transcriptase and 300 nM primer/template in which the correct base incorporation is a guanine nucleotide was rapidly mixed with nucleotide in the presence of 50 mM Tris, 50 mM NaCl and 10 mM MgCl2 for a set amount of time and then the reaction was stopped by the addition 300 mM of EDTA.

[5] = molecular target: T1, wild type HIV-1 reverse transcriptase; settings: from Ray and Anderson or Furman et al., cited from earlier work
[6] = molecular target: T2, mitochondrial polymerase gamma (Homo sapiens, UniProt P54098); test: Nucleotide incorporation by mitochondrial polymerase gamma into an elongating DNA strand; type: biochemical; settings: for Kd / kpol / kpol/Kd: mitochondrial polymerase gamma, incorporation
T2 sequence (P54098 1-1239): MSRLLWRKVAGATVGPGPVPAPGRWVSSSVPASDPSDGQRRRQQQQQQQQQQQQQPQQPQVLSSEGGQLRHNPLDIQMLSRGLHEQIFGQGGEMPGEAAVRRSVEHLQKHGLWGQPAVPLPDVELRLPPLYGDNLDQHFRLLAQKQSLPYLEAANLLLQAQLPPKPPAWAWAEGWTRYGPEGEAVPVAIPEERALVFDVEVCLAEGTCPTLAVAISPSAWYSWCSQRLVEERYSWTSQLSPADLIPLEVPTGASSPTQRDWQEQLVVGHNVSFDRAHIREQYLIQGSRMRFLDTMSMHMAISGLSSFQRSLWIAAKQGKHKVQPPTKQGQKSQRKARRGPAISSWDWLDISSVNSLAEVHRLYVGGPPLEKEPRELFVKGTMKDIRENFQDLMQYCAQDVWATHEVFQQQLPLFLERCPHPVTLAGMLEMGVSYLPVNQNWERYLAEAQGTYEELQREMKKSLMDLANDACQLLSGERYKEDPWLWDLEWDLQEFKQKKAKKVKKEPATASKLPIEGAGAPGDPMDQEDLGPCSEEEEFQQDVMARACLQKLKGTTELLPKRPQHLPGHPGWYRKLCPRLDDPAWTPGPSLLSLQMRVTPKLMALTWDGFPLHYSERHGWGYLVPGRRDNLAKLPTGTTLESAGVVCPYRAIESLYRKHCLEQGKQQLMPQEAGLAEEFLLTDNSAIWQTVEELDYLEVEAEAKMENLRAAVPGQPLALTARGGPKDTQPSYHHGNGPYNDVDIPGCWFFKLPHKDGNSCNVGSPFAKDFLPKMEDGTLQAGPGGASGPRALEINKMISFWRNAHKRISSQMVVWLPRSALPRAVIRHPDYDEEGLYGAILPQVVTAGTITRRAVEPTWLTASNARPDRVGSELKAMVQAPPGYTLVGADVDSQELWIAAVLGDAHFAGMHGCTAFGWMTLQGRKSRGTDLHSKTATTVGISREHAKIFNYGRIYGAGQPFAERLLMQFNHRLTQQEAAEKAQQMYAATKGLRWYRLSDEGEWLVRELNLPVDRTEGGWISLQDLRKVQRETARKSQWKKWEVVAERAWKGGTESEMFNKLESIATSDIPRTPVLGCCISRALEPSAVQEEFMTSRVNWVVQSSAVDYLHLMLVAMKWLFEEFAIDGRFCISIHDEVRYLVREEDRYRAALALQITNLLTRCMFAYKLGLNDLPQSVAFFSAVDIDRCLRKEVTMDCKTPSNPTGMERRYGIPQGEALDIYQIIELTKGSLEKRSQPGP

[7] = molecular target: T2, mitochondrial polymerase gamma; test: Exonuclease removal from chain terminated primer template by mitochondrial polymerase gamma; type: biochemical
HIV [8] = settings: cited from earlier work
[9] = molecular target: T2, mitochondrial polymerase gamma; settings: exonuclease; from Johnson et al.; cited from earlier work
[10] = molecular target: T2, mitochondrial polymerase gamma; settings: cited from earlier work
[11] = Table 4, primer/template DNA/DNA, RT WT
[12] = Table 4, primer/template DNA/RNA, RT WT
[13] = mitochondrial polymerase gamma, from Johnson et al.

Row | Structure (SMILES) | IC50 (MT-2) | IC50 (KB) | IC50 (HEP-G2) | IC50 (HeLa) | anti-HIV activity (HIV IIIB) | IC50 (CEM) | % Control (mtDNA/Alu) ([3]; 1 μM) | Ration of mtDNA/Alu ([3]; 1 μM) | % Control (mtDNA/Alu) ([3]; 10 μM) | Ration of mtDNA/Alu ([3]; 10 μM) | Efficiency [4, 11] | Kd [4, 11] | kpol [4, 11] | Efficiency [4, 12] | Kd [4, 12] | kpol [4, 12] | Kd [6] | kpol [6] | kpol/Kd [6] | kexo [7] | also measured
1 | Nc1nc(NC2CC2)c2ncn([C@H]3C=C[C@@H](CO)O3)c2n1 [Cd4G, 2-Amino-6-cyclopropylamino-9-(2,3-dideoxy-β-D-glycero-pent-2-enofuranosyl)purine] | 100 ± 22 µM | > 500 µM | > 500 µM | 500 ± 33 µM | strong anti-HIV activity | 200 ± 31 µM | 99% | 1.06 ± 0.11 | 84% | 0.90 ± 0.06 |  |  |  |  |  |  |  |  |  |  | anti-HIV interaction in combination with 3TC (HIV [1]; FIG. 3 and FIG. 4): synergistic; anti-HIV interaction in combination with D4T (HIV [1]; FIG. 4): somewhat synergistic; anti-HIV interaction in combination with AZT (HIV [1]; FIG. 4, D4T with AZT data not shown): synergistic; EC50 (HIV IIIB; Human immunodeficiency virus 1, IIIB, MT2, 120 h, read-out: EC50 (concentration necessary to save 50% of the cells)): 8 µM; fold less active (anti-HIV) in the presence of mycophenolic acid (HIV [2]; 200 nM mycophenolic acid, 30 minutes, 1×10^5 cells/ml): 3 fold; anti-HIV activity on addition of guanine to the media (HIV [2]; in the presence of mycophenolic acid, data not shown): rescued; mitochondrial toxicity [3]: lower mitochondrial toxicity than D4T; % Control (mtDNA/Alu) ([3]; 200 μM): 43%; Ration of mtDNA/Alu ([3]; 200 μM): 0.46 ± 0.06
2 | Nc1nc2c(ncn2[C@H]2C[C@H](O)[C@@H](COP(=O)(O)OP(=O)(O)OP(=O)(O)O)O2)c(=O)[nH]1 [DGTP] |  |  |  |  |  |  |  |  |  |  | 1.7 ± 0.3 s^−1μM^−1 | 14 ± 2 µM | 24 ± 1 s⁻¹ | 3.1 ± 0.6 s^−1μM^−1 | 11 ± 2 µM | 35 ± 2 s⁻¹ | 1.4 ± 0.3 µM | 175 ± 10 s⁻¹ | 1.3e+08 ± 3e+07 M⁻¹ s⁻¹ | 0.019 ± 0.0019 s⁻¹ | Kd ([5]; Table 3, substrate DNA/DNA): 14 ± 2 µM; Selectivity = (kpol/Kd)dGTP/(kpol/Kd)analog ([5]; Table 3, substrate DNA/DNA): 1; kpol ([5]; Table 3, substrate DNA/DNA): 24 ± 1 s⁻¹; Kd ([5]; Table 3, substrate DNA/RNA): 11 ± 2 µM; Selectivity = (kpol/Kd)dGTP/(kpol/Kd)analog ([5]; Table 3, substrate DNA/RNA): 1; kpol ([5]; Table 3, substrate DNA/RNA): 35 ± 2 s⁻¹
3 | Nc1nc2c(ncn2[C@H]2C=C[C@@H](COP(=O)(O)OP(=O)(O)OP(=O)(O)O)O2)c(=O)[nH]1 [D4GTP] |  |  |  |  |  |  |  |  |  |  | 1.1 ± 0.3 s^−1μM^−1 | 11 ± 2 µM | 11 ± 1 s⁻¹ | 1.4 ± 0.2 s^−1μM^−1 | 9.5 ± 1.1 µM | 13 ± 0.5 s⁻¹ | 0.61 ± 0.13 µM | 0.27 ± 0.02 s⁻¹ | 450000 ± 99000 M⁻¹ s⁻¹ | 0.00046 ± 0.000021 s⁻¹ | Kd ([4]; Table 3, substrate DNA/DNA): 11 ± 2 µM; Selectivity = (kpol/Kd)dGTP/(kpol/Kd)analog ([4]; Table 3, substrate DNA/DNA): 1.5; kpol ([4]; Table 3, substrate DNA/DNA): 11 ± 1 s⁻¹; kpol/Kd ([4]; Table 3, substrate DNA/DNA): 1.1 ± 0.26; Kd ([4]; Table 3, substrate DNA/RNA): 9.5 ± 1.1 µM; Selectivity = (kpol/Kd)dGTP/(kpol/Kd)analog ([4]; Table 3, substrate DNA/RNA): 2; kpol ([4]; Table 3, substrate DNA/RNA): 13 ± 0.5 s⁻¹; kpol/Kd ([4]; Table 3, substrate DNA/RNA): 1.4 ± 0.2; Selectivity = efficiency dGTP/efficiency analog [4, 11]: 2; Selectivity = efficiency dGTP/efficiency analog [4, 12]: 2; Toxicity Index ([6]; fold increase in time for mitochondrial replication, 1 = no toxicity): 320
4 | Nc1nc2c(ncn2[C@H]2C=C[C@@H](CO)O2)c(=O)[nH]1 [d4G, 9-(2,3-Dideoxy-β-D-glycero-pent-2-enofuranosyl)guanine] | 40 ± 9 µM | > 500 µM | 280 ± 19 µM | 200 ± 13 µM | complete inactivity | 70 ± 11 µM | 105% | 1.12 ± 0.17 | 106% | 1.14 ± 0.07 |  |  |  |  |  |  |  |  |  |  | previously reported activity against HIV (HIV [8]): inactive
5 | Nc1nc2c(ncn2[C@H]2C=C[C@@H](CO)C2)c(=O)[nH]1 [carbovir] |  |  |  |  |  |  |  |  |  |  |  |  |  |  |  |  |  |  |  |  | previously reported activity against HIV (HIV [8]): significant activity
6 | Cc1cn([C@H]2C=C[C@@H](COP(=O)(O)OP(=O)(O)OP(=O)(O)O)O2)c(=O)[nH]c1=O [D4TTP] |  |  |  |  |  |  |  |  |  |  |  |  |  |  |  |  |  |  |  |  | kexo [9]: 0.0004 s⁻¹; Toxicity Index [10]: 3,120; Discrimination [10, 13]: 7.4; Kd [10, 13]: 0.045 ± 0.0075 µM; kpol [10, 13]: 0.24 ± 0.01 s⁻¹; kpol/Kd [10, 13]: 5.4e+06 ± 930000 M⁻¹ s⁻¹
